Legend:
Assay in all cases: Off-target binding screen
H4 = target: T1, H4 (Homo sapiens, UniProt Q9H3N8); conditions: 1000 nM, read-out: % Inhibition of Control Specific Binding
T1 construct: Eurofins Pharma Discovery Services (contract assay)

κ (KOR) = target: T2, κ (KOR) (Homo sapiens, UniProt P41145); conditions: 1000 nM, read-out: % Inhibition of Control Specific Binding
T2 construct: Eurofins Pharma Discovery Services (contract assay)

α2C = target: T3, α2C (Homo sapiens, UniProt P18825); conditions: read-out: % Inhibition of Control Specific Binding; for inhibition at 0.001 µM: 1 nM; for inhibition at 0.01 µM: 10 nM; for inhibition at 0.1 µM: 100 nM; for inhibition at 1 µM: 1000 nM
T3 construct: Eurofins Pharma Discovery Services (contract screen)
T3 sequence (P18825 1-462): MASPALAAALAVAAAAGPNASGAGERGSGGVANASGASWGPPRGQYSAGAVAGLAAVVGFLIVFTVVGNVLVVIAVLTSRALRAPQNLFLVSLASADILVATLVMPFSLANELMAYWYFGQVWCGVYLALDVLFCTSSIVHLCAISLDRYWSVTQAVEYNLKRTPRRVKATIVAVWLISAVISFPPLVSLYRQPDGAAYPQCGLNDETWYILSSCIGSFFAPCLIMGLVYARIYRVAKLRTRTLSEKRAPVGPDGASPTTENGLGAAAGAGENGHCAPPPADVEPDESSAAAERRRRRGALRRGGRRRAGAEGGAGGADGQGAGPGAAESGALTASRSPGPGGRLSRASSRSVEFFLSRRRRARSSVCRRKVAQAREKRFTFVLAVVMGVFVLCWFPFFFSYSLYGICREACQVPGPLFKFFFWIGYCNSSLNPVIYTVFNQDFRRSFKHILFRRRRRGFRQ

D4.4 = target: T4, D4.4 (Homo sapiens, UniProt P21917); conditions: read-out: % Inhibition of Control Specific Binding; for inhibition at 0.001 µM: 1 nM; for inhibition at 0.01 µM: 10 nM; for inhibition at 0.1 µM: 100 nM; for inhibition at 1 µM: 1000 nM
T4 construct: Eurofins Pharma Discovery Services (contract assay)
T4 sequence (P21917 1-419): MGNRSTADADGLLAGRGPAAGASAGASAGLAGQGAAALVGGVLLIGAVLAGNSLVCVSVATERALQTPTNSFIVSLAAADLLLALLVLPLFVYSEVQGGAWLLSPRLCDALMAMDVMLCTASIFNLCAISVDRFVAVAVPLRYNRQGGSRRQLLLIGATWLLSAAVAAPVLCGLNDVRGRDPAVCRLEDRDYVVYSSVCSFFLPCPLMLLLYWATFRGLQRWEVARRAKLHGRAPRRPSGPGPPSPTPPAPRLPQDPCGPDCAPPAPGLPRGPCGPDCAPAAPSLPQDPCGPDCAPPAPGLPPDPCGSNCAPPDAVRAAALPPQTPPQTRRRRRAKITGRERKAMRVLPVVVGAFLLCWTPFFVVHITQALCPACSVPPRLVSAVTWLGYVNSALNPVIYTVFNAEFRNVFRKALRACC

α1B = target: T5, α1B (Homo sapiens, UniProt P35368); conditions: read-out: % Inhibition of Control Specific Binding; for inhibition at 1 µM: 1000 nM; for inhibition at 0.01 µM: 10 nM; for inhibition at 0.1 µM: 100 nM
T5 construct: Eurofins Pharma Discovery Services (contract screen)
T5 sequence (P35368 1-520): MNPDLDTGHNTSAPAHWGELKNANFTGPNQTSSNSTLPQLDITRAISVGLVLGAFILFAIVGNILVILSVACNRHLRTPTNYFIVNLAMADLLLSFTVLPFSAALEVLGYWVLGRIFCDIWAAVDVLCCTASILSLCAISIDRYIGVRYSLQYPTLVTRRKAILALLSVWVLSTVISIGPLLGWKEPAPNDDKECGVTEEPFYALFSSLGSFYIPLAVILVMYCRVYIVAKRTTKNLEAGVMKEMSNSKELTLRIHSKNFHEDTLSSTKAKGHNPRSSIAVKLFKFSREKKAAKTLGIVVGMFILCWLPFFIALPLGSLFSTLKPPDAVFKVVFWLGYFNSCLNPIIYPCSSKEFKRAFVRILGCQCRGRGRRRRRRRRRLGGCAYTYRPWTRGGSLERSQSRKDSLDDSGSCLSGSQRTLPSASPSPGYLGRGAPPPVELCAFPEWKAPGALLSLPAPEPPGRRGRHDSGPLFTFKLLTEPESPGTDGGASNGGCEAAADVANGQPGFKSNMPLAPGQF

DAT = target: T6, DAT (Homo sapiens, UniProt Q01959); conditions: 1000 nM, read-out: % Inhibition of Control Specific Binding
T6 construct: Eurofins Pharma Discovery Services
T6 sequence (Q01959 whole entry, species assumed): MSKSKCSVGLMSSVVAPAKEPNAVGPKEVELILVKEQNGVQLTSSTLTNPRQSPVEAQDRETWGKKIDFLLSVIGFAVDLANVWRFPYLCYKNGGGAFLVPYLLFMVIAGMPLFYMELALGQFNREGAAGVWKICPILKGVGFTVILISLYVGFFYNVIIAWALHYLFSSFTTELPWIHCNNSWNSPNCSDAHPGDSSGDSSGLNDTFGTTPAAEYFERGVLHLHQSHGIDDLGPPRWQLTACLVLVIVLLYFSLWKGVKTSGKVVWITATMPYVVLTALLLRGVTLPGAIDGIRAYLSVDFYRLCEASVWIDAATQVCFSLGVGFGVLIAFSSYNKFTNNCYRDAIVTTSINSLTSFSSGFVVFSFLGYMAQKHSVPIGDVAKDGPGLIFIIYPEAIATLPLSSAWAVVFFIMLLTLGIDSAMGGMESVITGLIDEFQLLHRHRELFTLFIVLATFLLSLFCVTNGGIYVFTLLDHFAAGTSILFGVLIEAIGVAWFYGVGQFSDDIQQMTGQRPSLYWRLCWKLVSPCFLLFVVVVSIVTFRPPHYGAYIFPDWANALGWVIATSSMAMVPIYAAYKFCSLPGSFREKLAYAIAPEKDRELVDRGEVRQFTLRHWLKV

α1D = target: T7, α1D (Homo sapiens, UniProt P25100); conditions: read-out: % Inhibition of Control Specific Binding; for inhibition at 0.01 µM: 10 nM; for inhibition at 0.1 µM: 100 nM; for inhibition at 1 µM: 1000 nM
T7 construct: Eurofins Pharma Discovery Services (contract screen)
T7 sequence (P25100 1-572): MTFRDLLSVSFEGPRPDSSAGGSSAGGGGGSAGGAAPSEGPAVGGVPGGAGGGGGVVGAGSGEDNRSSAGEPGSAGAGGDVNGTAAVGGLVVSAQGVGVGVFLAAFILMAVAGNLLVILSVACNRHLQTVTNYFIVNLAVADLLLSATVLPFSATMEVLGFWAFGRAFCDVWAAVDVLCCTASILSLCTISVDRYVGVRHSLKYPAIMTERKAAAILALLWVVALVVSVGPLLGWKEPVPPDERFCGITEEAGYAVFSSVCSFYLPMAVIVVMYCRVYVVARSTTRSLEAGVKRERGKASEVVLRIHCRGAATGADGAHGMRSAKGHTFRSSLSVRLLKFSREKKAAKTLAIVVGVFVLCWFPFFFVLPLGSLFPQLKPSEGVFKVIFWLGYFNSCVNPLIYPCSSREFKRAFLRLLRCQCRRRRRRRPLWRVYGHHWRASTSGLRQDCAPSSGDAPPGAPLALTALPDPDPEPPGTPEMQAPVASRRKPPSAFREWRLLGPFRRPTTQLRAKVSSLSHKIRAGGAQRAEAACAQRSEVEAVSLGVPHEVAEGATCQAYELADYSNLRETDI

NET = target: T8, NET (Homo sapiens, UniProt P23975); conditions: 1000 nM, read-out: % Inhibition of Control Specific Binding
T8 construct: Eurofins Pharma Discovery Services
T8 sequence (P23975 whole entry): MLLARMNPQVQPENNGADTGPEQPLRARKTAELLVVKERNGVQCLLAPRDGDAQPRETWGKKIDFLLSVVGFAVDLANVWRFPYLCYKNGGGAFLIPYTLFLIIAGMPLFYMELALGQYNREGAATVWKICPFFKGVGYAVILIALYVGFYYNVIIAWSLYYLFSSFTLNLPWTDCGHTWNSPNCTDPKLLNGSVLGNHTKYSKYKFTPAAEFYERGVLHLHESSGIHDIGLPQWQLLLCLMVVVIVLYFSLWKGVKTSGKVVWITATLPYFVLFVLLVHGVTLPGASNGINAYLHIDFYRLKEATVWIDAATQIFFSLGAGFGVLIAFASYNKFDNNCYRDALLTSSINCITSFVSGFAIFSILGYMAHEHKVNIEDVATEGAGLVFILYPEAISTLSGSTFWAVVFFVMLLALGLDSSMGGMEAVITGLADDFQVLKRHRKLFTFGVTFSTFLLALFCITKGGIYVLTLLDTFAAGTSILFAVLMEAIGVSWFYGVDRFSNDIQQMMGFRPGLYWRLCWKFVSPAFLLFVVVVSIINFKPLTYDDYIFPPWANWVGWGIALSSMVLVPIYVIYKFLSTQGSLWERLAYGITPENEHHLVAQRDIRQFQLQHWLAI

M2 = target: T9, M2 (Homo sapiens, UniProt P08172); conditions: 1000 nM, read-out: % Inhibition of Control Specific Binding
T9 construct: Eurofins Pharma Discovery Services (contract assay)
T9 sequence (P08172 1-466): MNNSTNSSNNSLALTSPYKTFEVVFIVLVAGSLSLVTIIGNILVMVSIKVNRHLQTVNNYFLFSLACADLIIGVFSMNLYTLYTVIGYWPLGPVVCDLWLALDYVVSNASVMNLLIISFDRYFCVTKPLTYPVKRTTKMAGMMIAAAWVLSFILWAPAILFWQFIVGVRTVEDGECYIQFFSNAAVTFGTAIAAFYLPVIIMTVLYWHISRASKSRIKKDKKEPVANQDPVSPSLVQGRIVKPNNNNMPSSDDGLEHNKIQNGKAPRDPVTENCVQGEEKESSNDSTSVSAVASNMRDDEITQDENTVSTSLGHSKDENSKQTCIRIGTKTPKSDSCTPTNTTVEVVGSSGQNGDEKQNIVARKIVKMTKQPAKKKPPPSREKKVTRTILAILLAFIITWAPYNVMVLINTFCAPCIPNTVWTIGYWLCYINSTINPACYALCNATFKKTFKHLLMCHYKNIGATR

T1 sequence (Q9H3N8 whole entry): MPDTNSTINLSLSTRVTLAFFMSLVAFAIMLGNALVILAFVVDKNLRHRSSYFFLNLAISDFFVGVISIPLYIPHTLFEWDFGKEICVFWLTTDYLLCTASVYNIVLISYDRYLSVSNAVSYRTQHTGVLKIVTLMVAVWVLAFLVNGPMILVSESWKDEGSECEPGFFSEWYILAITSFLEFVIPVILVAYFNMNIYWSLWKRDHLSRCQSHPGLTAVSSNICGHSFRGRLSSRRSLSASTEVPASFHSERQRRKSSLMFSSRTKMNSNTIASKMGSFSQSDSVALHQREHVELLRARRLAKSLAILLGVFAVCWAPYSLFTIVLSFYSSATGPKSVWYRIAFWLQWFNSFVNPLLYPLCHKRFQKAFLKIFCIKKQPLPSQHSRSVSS
T2 sequence (P41145 whole entry): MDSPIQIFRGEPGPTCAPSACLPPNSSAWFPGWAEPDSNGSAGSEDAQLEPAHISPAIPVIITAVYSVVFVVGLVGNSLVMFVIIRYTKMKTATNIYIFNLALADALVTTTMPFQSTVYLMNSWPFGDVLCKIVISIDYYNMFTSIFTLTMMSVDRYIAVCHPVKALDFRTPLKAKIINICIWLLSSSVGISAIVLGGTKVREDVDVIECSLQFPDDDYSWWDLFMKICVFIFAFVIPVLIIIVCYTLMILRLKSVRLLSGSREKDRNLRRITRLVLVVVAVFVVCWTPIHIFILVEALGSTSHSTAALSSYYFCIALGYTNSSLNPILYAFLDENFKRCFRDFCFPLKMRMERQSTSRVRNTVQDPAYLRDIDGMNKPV

| SMILES | inhibition at 1 µM (H4) | inhibition at 1 µM (κ (KOR)) | inhibition at 0.001 µM (α2C) | inhibition at 0.01 µM (α2C) | inhibition at 0.1 µM (α2C) | inhibition at 1 µM (α2C) | inhibition at 0.001 µM (D4.4) | inhibition at 0.01 µM (D4.4) | inhibition at 0.1 µM (D4.4) | inhibition at 1 µM (D4.4) | inhibition at 1 µM (α1B) | inhibition at 1 µM (DAT) | inhibition at 0.01 µM (α1D) | inhibition at 0.1 µM (α1D) | inhibition at 1 µM (α1D) | inhibition at 1 µM (NET) | inhibition at 1 µM (M2) | inhibition at 0.01 µM (α1B) | inhibition at 0.1 µM (α1B) | inhibition at 0.001 µM (α1D; 1 nM) |
| --- | --- | --- | --- | --- | --- | --- | --- | --- | --- | --- | --- | --- | --- | --- | --- | --- | --- | --- | --- | --- |
| O=C(c1ccc(F)c(Cl)c1)N1CCC(F)(CNCCOc2ccccc2)CC1 [Compound 3] | -11% | 4% | 1% | 18% | 66% | 92% | -1% | 8% | 59% | 92% | 32% | -2% | 19% | 40% | 84% | -7% | -20% | – | – | – |
| CNc1ccccc1OCCNCC1(F)CCN(C(=O)c2ccc(F)c(Cl)c2)CC1 [Compound 44, (3-Chloro-4-fluorophenyl)(4-fluoro-4-(((2-(2-(methylamino)phenoxy)ethyl)amino)methyl)piperidin-1-yl)methanone] | -11% | -2% | – | – | – | 32% | – | – | 51% | 90% | – | 0% | -1% | 32% | 80% | 0% | -12% | -3% | -6% | – |
| O=C(c1ccc(F)c(Cl)c1)N1CCC(F)(CNCCOc2cccc3[nH]ccc23)CC1 [Compound 56, (4-(((2-((1H-Indol-4-yl)oxy)ethyl)amino)methyl)-4-fluoropiperidin-1-yl)(3-chloro-4-fluorophenyl)methanone] | 5% | 6% | 3% | 18% | 74% | – | 9% | 48% | 89% | 98% | 69% | 37% | 23% | 63% | – | 5% | -8% | -6% | 11% | -7% |
